Laboratory results published in ChEMBL document CHEMBL5523743, “Identification of Psychoplastogenic Tropanes Lacking Muscarinic Activity” (J Med Chem, 2024).
The source made the active and inactive calls. No cut-off for these calls is given here.

Key:
[1] = test system: Neuron; assay: Neuroplasticity effect in Wistar rat brain cortical neuron assessed as increase in neurite outgrowth at 0.25 to 10 uM after 72 hrs; type: functional, cell-based; settings: dose 0.25-10 µM
[2] = target: T1, Muscarinic acetylcholine receptor M1 (Homo sapiens) (UniProt P11229); assay: Antagonist activity at recombinant human M1 receptor expressed in CHO-K1 cells incubated for 15 mins in presence of acetylcholine by aequorin assay; type: functional, cell-based
T1 sequence (whole entry): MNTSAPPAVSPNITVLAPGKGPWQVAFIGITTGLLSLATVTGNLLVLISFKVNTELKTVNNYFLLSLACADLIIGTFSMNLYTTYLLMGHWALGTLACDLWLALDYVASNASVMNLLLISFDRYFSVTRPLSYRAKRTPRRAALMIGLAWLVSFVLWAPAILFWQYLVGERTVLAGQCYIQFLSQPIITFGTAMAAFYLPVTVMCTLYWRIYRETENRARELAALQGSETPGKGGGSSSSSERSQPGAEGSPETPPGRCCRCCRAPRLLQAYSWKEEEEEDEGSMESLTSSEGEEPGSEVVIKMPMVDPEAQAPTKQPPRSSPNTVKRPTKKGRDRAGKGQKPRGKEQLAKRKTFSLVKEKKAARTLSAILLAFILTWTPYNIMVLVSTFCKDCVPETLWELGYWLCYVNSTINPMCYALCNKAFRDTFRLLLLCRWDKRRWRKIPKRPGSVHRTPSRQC

[3] = test system: Neuron; assay: Neuroplasticity effect in Wistar rat brain cortical neuron assessed as increase in neurite outgrowth after 72 hrs; type: functional, cell-based; settings: dose 0.25-10 µM
[4] = target: T2, 5-hydroxytryptamine receptor 2C (Homo sapiens) (UniProt P28335); assay: Antagonist activity at recombinant human 5HT2CR expressed in CHO-K1 cells incubated for 60 mins in presence of alpha-Me-5HT by HTRF method; type: functional, cell-based
T2 sequence (whole entry): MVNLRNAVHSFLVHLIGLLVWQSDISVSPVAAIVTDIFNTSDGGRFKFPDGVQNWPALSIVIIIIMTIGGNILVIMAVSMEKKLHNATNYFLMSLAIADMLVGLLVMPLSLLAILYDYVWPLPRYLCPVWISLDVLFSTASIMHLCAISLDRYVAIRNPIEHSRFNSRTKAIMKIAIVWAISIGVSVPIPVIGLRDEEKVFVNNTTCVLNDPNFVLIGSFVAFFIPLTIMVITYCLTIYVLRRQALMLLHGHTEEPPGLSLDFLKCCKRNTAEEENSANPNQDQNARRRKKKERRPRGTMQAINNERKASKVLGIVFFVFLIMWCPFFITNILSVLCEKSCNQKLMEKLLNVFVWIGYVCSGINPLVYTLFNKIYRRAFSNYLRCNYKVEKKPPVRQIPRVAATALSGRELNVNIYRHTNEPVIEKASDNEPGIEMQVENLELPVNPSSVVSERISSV

[5] = test system: Neuron; assay: Cytotoxicity against Wistar rat brain cortical neurons assessed as decrease in average number of neurites per neuron at 0.25 to 10 uM; type: toxicity, cell-based; settings: dose 0.25-10 µM
[6] = target: T3, Muscarinic acetylcholine receptor M5 (Homo sapiens) (UniProt P08912); assay: Agonist activity at recombinant human M5 receptor expressed in CHO-K1 cells incubated for 15 mins by aequorin assay; type: functional, cell-based
T3 sequence (whole entry): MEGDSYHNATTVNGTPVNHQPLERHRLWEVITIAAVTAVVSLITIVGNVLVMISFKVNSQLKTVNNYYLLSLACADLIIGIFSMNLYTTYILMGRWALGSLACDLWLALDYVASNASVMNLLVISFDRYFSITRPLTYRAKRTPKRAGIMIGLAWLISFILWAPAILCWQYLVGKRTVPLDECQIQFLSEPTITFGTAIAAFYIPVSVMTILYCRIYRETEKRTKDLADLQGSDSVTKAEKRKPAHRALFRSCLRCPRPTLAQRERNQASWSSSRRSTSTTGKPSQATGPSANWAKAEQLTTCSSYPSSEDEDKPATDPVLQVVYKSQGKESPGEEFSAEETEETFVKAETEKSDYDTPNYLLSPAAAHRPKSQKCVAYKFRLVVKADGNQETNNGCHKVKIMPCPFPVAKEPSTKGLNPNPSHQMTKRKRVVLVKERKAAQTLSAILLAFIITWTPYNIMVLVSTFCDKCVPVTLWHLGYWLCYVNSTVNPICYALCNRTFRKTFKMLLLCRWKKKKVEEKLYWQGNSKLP

[7] = target: Muscarinic acetylcholine receptor M3 (Homo sapiens) (UniProt P20309); assay: Agonist activity at recombinant human M3 receptor expressed in CHO-K1 cells incubated for 15 mins by aequorin assay; type: functional, cell-based
[8] = target: T4, Muscarinic acetylcholine receptor M4 (Homo sapiens) (UniProt P08173); assay: Agonist activity at M4 receptor (unknown origin) by GTPgamma[35S] based Topcount scintillation counting method; type: functional
T4 sequence (whole entry): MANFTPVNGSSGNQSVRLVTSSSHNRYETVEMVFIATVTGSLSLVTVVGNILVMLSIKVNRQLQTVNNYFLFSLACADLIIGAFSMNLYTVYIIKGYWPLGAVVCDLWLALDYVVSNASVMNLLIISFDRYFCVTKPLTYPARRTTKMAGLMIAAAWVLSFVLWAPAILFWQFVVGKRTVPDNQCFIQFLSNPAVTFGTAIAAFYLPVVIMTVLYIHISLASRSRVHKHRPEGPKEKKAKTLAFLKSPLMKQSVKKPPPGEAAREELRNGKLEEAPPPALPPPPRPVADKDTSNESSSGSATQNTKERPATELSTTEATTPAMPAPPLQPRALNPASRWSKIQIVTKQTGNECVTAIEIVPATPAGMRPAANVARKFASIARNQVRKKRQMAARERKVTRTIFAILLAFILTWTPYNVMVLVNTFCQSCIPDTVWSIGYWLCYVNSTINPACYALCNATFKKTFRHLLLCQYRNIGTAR

[9] = target: T2, 5-hydroxytryptamine receptor 2C (Homo sapiens); assay: Displacement of [3H]-DOI from 5HT2CR (unknown origin) by Topcount scintillation counting method
[10] = target: T2, 5-hydroxytryptamine receptor 2C (Homo sapiens); assay: Agonist activity at recombinant human 5HT2CR expressed in CHO-K1 cells incubated for 60 mins by HTRF method; type: functional, cell-based
[11] = target: 5-hydroxytryptamine receptor 2A (Homo sapiens) (UniProt P28223); assay: Displacement of [3H]-DOI from 5HT2AR (unknown origin) by Topcount scintillation counting method
[12] = target: T1, Muscarinic acetylcholine receptor M1 (Homo sapiens); assay: Agonist activity at recombinant human M1 receptor expressed in CHO-K1 cells incubated for 15 mins by aequorin assay; type: functional, cell-based
[13] = target: 5-hydroxytryptamine receptor 2A (Homo sapiens) (UniProt P28223); assay: Agonist activity at recombinant human 5HT2AR expressed in CHO-K1 cells incubated for 60 mins by HTRF method; type: functional, cell-based
[14] = target: T5, Muscarinic acetylcholine receptor M2 (Homo sapiens) (UniProt P08172); assay: Agonist activity at M2 receptor (unknown origin) by GTPgamma[35S] based Topcount scintillation counting method; type: functional
T5 sequence (whole entry): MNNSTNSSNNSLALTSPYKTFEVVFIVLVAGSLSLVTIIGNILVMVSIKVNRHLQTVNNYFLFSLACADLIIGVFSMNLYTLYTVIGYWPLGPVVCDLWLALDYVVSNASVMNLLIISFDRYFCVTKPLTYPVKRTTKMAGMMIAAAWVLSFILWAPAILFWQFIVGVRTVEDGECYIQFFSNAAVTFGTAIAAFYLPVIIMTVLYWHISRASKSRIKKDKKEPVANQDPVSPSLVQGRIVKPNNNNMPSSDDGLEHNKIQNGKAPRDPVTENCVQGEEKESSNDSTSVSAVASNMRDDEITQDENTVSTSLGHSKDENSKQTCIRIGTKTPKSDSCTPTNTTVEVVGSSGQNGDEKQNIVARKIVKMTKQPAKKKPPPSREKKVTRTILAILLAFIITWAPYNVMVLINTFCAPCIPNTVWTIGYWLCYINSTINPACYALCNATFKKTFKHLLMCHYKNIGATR

[15] = test system: Neuron; assay: Cytotoxicity against Wistar rat brain cortical neurons assessed as neurite restriction; type: toxicity, cell-based; settings: dose 0.25-10 µM
[16] = target: T5, Muscarinic acetylcholine receptor M2 (Homo sapiens); assay: Displacement of [3H]-Scopolamine from M2 receptor (unknown origin) by Topcount scintillation counting method
[17] = target: T4, Muscarinic acetylcholine receptor M4 (Homo sapiens); assay: Displacement of [3H]-Scopolamine from M4 receptor (unknown origin) by Topcount scintillation counting method
[18] = target: T4, Muscarinic acetylcholine receptor M4 (Homo sapiens); assay: Antagonist activity at M4 receptor (unknown origin) incubated for 1 hr in presence of oxotremorine by GTPgamma[35S] based Topcount scintillation counting method; type: functional
[19] = target: T5, Muscarinic acetylcholine receptor M2 (Homo sapiens); assay: Antagonist activity at M2 receptor (unknown origin) incubated for 1 hr in presence of acetylcholine by GTPgamma[35S] based Topcount scintillation counting method; type: functional
[20] = target: T1, Muscarinic acetylcholine receptor M1 (Homo sapiens); assay: Displacement of [3H]-Scopolamine from M1 receptor (unknown origin) by Topcount scintillation counting method
[21] = target: Muscarinic acetylcholine receptor M3 (Homo sapiens) (UniProt P20309); assay: Antagonist activity at recombinant human M3 receptor expressed in CHO-K1 cells incubated for 15 mins in presence of acetylcholine by aequorin assay; type: functional, cell-based
[22] = target: 5-hydroxytryptamine receptor 2A (Homo sapiens) (UniProt P28223); assay: Antagonist activity at recombinant human 5HT2AR expressed in CHO-K1 cells incubated for 60 mins in presence of alpha-Me-5HT by HTRF method; type: functional, cell-based
[23] = target: Muscarinic acetylcholine receptor M3 (Homo sapiens) (UniProt P20309); assay: Displacement of [3H]-Scopolamine from M3 receptor (unknown origin) by Topcount scintillation counting method
[24] = target: T3, Muscarinic acetylcholine receptor M5 (Homo sapiens); assay: Antagonist activity at recombinant human M5 receptor expressed in CHO-K1 cells incubated for 15 mins in presence of acetylcholine by aequorin assay; type: functional, cell-based
[25] = target: T3, Muscarinic acetylcholine receptor M5 (Homo sapiens); assay: Displacement of [3H]-Scopolamine from M5 receptor (unknown origin) by Topcount scintillation counting method

Sequence of Muscarinic acetylcholine receptor M3 (Homo sapiens) (P20309 whole entry, looked up): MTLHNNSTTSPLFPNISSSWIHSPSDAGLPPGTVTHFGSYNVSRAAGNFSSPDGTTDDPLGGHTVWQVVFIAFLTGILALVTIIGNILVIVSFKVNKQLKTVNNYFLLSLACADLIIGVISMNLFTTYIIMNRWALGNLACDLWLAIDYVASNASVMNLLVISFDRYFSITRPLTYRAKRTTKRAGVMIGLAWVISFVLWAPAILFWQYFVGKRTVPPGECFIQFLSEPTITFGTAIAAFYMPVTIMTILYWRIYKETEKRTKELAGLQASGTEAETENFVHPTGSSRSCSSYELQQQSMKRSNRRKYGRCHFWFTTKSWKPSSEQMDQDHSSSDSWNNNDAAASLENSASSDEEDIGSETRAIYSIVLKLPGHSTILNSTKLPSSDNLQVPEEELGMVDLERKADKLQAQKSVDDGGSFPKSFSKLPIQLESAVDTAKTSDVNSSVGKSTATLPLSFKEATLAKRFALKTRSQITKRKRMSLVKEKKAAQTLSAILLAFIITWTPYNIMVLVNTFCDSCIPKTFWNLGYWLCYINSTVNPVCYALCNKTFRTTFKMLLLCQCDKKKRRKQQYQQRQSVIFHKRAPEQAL
Sequence of 5-hydroxytryptamine receptor 2A (Homo sapiens) (P28223 whole entry): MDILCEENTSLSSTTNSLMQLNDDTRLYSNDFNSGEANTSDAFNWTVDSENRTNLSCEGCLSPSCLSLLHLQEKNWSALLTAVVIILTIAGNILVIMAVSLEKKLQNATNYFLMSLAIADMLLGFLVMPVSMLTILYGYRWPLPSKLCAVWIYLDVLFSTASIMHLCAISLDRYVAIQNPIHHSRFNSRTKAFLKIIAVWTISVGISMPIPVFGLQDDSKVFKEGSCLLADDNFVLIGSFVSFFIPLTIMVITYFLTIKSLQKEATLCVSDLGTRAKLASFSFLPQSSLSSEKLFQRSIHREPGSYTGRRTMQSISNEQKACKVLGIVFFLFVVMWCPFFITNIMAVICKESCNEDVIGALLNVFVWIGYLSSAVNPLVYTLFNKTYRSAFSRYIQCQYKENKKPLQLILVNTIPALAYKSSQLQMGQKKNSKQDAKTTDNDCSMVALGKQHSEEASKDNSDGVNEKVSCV

Compound: O=C1C[C@H]2C[C@H](O)[C@@H](C1)N2CCc1c[nH]c2ccccc12
- Activity [1]: Active

Compound: COc1ccccc1[C@H]1C[C@@H]2CCC[C@H]1N2C
- Activity [1]: inactive

Compound: COc1cccc([C@H]2C[C@@H]3CCC[C@H]2N3C)c1
- Activity [1]: Active
- Activity ([2]; filed as antagonist): Active

Compound: CN1[C@@H]2CC[C@H]1C[C@H](OC(=O)/C=C/c1ccccc1)C2
- Activity [3]: Dose-Dependent Effect

Compound: CN1[C@@H]2CCC[C@H]1[C@H]1[C@@H]2N1c1ccc2[nH]ccc2c1
- Activity [1]: inactive

Compound: CN1[C@H]2CC[C@@H]1C=C(c1c[nH]c3ccccc13)C2
- Activity ([4]; filed as antagonist): Active
- Activity [1]: inactive

Compound: COc1ccc(CCN2[C@@H]3CCC[C@H]2CC3)cc1
- Activity [5]: Toxic
- Activity [1]: inactive

Compound: CN1[C@@H]2CCC[C@H]1[C@H]1[C@@H]2N1c1ccccc1
- Activity [1]: inactive

Compound: Fc1ccccc1CCN1[C@@H]2CCC[C@H]1CC2
- Activity [1]: Active

Compound: CN1[C@H]2C[C@H](O)C[C@@H]1[C@@H](c1ccccc1)C2
- Activity [1]: inactive

Compound: CN1[C@@H]2CCC[C@H]1[C@H]1[C@@H]2N1c1cccnc1
- Activity [1]: inactive

Compound: CN1[C@H]2CCC[C@@H]1[C@@H](c1ccc(F)cc1)C2
- Activity [1]: inactive

Compound: COc1ccc2[nH]c3c(c2c1)[C@H]1CC[C@@H](C3)N1C
- Activity [1]: inactive

Compound: CN1[C@H]2C[C@@H](OC(=O)c3ccccc3)C[C@@H]1[C@@H](c1ccccc1)C2
- Activity [1]: Active
- Activity ([2]; filed as antagonist): Active

Compound: COc1cccc(CCN2[C@@H]3CCC[C@H]2CC3)c1
- Activity [1]: Active

Compound: Fc1ccc(CCN2[C@@H]3CCC[C@H]2CC3)cc1
- Activity [1]: Active

Compound: COc1ccccc1CCN1[C@@H]2CCC[C@H]1CC2
- Activity ([6]; filed as agonist): Active
- Activity ([7]; filed as agonist): Active
- Activity ([8]; filed as agonist): Active
- Activity ([9]; filed as agonist): Active
- Activity ([10]; filed as agonist): Active
- Activity ([11]; filed as agonist): Active
- Activity ([12]; filed as agonist): Active
- Activity ([13]; filed as agonist): Active
- Activity ([14]; filed as agonist): Active

Compound: CN1[C@@H]2CCC[C@H]1[C@H]1[C@@H]2N1c1cccc2[nH]ccc12
- Activity [15]: Dose-Dependent Effect
- Activity [1]: inactive

Compound: CN1[C@H]2CCC[C@@H]1[C@@H](c1ccccc1)C2
- Activity [1]: inactive

Compound: c1ccc(CCN2[C@@H]3CCC[C@H]2CC3)cc1
- Activity [1]: Active

Compound: COc1ccc(CN2[C@H]3CC(=O)C[C@@H]2[C@@H](O)C3)cc1
- Activity [16]: inactive
- Activity [17]: inactive
- Activity [6]: inactive
- Activity [18]: inactive
- Activity [7]: inactive
- Activity [4]: inactive
- Activity [19]: inactive
- Activity [8]: inactive
- Activity [9]: inactive
- Activity [20]: inactive
- Activity [10]: inactive
- Activity [11]: inactive
- Activity [1]: Active
- Activity [21]: inactive
- Activity [2]: inactive
- Activity [22]: inactive
- Activity [23]: inactive
- Activity [24]: inactive
- Activity [12]: inactive
- Activity [25]: inactive
- Activity [13]: inactive
- Activity [14]: inactive

Compound: CN1[C@H]2C[C@H](OC(=O)c3ccccc3)C[C@@H]1[C@@H](c1ccccc1)C2
- Activity [1]: inactive
- Activity ([2]; filed as antagonist): Active

Compound: CN1[C@@H]2CC[C@H]1C[C@H](OC(=O)c1ccccc1)C2
- Activity [1]: inactive

Compound: CN1[C@H]2CCC[C@@H]1[C@@H](c1cccc(F)c1)C2
- Activity [1]: Active
- Activity ([2]; filed as antagonist): Active

Compound: COc1ccc([C@H]2C[C@@H]3CCC[C@H]2N3C)cc1
- Activity [5]: Toxic
- Activity [1]: inactive

Compound: CN1[C@H]2CCC[C@@H]1[C@@H](c1ccccc1F)C2
- Activity [5]: Toxic
- Activity [1]: inactive

Compound: CN1[C@H]2C[C@@H](O)C[C@@H]1[C@@H](c1ccccc1)C2
- Activity [1]: inactive
